# From patent publication US20110195845A1, “Constructs for Expressing Herbicide Tolerance Genes, Related Plants, and Related Trait Combinations” (Dow AgroSciences LLC, priority 2008, published 2011)
# Key:
# [1] = test system: NT-1 tobacco suspension cells treated with DSM-2 (v2) (pDAB3778); experiment: NT-1 tobacco cell transformation, selection on bialaphos or glufosinate ammonium; type: cell-based
# Protocol: Four days prior to transformation, a 1 week old NT-1 tobacco suspension, which was being subcultured every 7 days, was subcultured to fresh medium by adding 2 ml of the NT-1 culture or 1 ml of packed cells into 40 ml NT-1 B media. The subcultured suspension was maintained in the dark at 25±1° C. on a shaker at 125 rpm.
# A 50% glycerol stock of Agrobacterium tumefaciens [strain LBA4404] harboring a binary vector of interest was used to initiate a liquid overnight culture by adding 20, 100, or 500 μl to 30 ml YEP liquid (10 g/L yeast extract, 10 g/L Peptone, 5 g/L NaCl, 0-10 g/L Sucrose) containing 50-100 mg/L spectinomycin. The bacterial culture was incubated in the dark at 28° C. in an incubator shaker at 150-250 rpm until the OD600 was 1.5+0.2. This took approximately 18-20 hrs.
# For each vector tested, 20-70 mL of 4-day old suspension cells were transferred into a sterile vessel, to which 500-1750 μl of Agrobacterium suspension at the proper OD was added. To ensure a uniform mixture was achieved, the cells were pipetted up and down 5 times with a 10 ml wide-bore pipet. The uniform suspension was then drawn up into a 25 ml barrel of a repeat pipetter and 250 μl of the suspension was dispensed per well into 24-well plates, continuing until the suspension was exhausted. The well plates were wrapped in parafilm and cultured in the dark at 25±1° C. without shaking for a 3 day co-cultivation.
# Following the co-cultivation, all excess liquid was removed from the individual wells with a 1 mL pipet tip, and remaining cells were resuspended in 1 ml NTC liquid (NT-1 B medium containing 500 mg/L carbenicillin, added after autoclaving). The contents of an individual well were dispersed across the entire surface of 100×25 mm selection plates using disposable transfer pipets. Selection media consisted of NTC media solidified with 8 g/l TC agar supplemented with 7.5 to 15 mg/L bialaphos or technical grade glufosinate ammonium, added after autoclaving. All selection plates, left unwrapped, were maintained in the dark at 28° C.
# Putative transformants appeared as small clusters of callus on a background of dead, non-transformed cells. Calli were isolated approximately 2-6 weeks post-transformation. Each callus isolate was transferred to its own 60×20 mm plate containing the same selection medium and allowed to grow for approximately 2 weeks before being submitted for analysis.
# [2] = test system: Escherichia coli BL21-Star (DE3) expressing PAT (v3); experiment: Complementation of cell growth on glufosinate, pDAB4434 (PAT v3); type: cell-based; design: key: −− = No Growth; +++ = Distinct Colony Growth; conditions: 24 hrs @28 C, 20 uM IPTG
# Text: A pET28a(+) expression plasmid containing PAT (v3) was constructed as a positive control. PAT (v3) was cloned as an NcoI-SacI fragment into corresponding restriction sites of pDAB779. Positive clones containing the PAT (v3) gene fragment were verified via restriction enzyme digestion. This construct was labeled as pDAB4434.
# (§1) The plasmids, pDAB4434, pDAB4412, and an empty pET vector (control) were transformed into Escherichia coli BL21-Star (DE3) bacterial cells. Expression cultures were initiated with 10-200 freshly transformed colonies into 250 mL LB medium containing 50 μg/ml antibiotic and 75 μM IPTG (isopropyl-[…]). The cultures were grown at 28° C. for 24 hours at 180-200 rpm. Five microliters of the culture was inoculated onto a complex media control and minimal media containing incrementally increasing concentrations of glufosinate and 20 μM IPTG. The cultures were dispersed evenly over the plates and incubated at 28° C. for 24 hours.
# PAT (pDAS1942) corn = experiment: T2 corn response to glufosinate applied postemergence; type: in vivo; conditions: 14DAT
# [3] = test system: Escherichia coli BL21-Star (DE3) expressing DSM-2 (v2); experiment: Complementation of cell growth on glufosinate, pDAB4412 (DSM-2 v2); type: cell-based; design: bacterial growth on minimal media: key: −− = No Growth; +++ = Distinct Colony Growth; conditions: for bacterial growth on minimal media: 24 hrs @28 C, 20 uM IPTG
# Protocol: as §1
# [4] = 560 g ai/ha glufosinate postemergence
# [5] = 2240 g ai/ha glufosinate postemergence
smiles,measurement,setting,value
CP(=O)(O)CCC(N)C(=O)O (centres unmarked) [glufosinate],Transformation frequency (% of selection plates producing at least one callus) after coding region PCR,[1]; 7.5 mg/L selection agent,55.6%
same,Transformation frequency (% of selection plates producing at least one callus) after coding region PCR,[1]; 10 mg/L selection agent,50.0%
same,Transformation frequency (% of selection plates producing at least one callus) after coding region PCR,[1]; 12.5 mg/L selection agent,44.4%
same,Transformation frequency (% of selection plates producing at least one callus) after coding region PCR,[1]; 15 mg/L selection agent,38.9%
same,bacterial growth on minimal media,[2]; 250 μg/ml BASTA,+++
same,bacterial growth on minimal media,[2]; 500 μg/ml BASTA,+++
same,bacterial growth on minimal media,[2]; 1000 μg/ml BASTA,+++
same,bacterial growth on minimal media,[2]; 2000 μg/ml BASTA,+++
same,bacterial growth on minimal media,[2]; 4000 μg/ml BASTA,+++
same,% Injury Ave,PAT (pDAS1942) corn; [4],6%
same,individuals with % Injury <20%,PAT (pDAS1942) corn; [4],4
same,individuals with % Injury >40%,PAT (pDAS1942) corn; 1120 g ai/ha glufosinate postemergence,3
same,% Injury Ave,PAT (pDAS1942) corn; [5],25%
same,individuals with % Injury 20-40%,PAT (pDAS1942) corn; [5],1
same,individuals with % Injury <20%,PAT (pDAS1942) corn; [5],2
same,individuals with % Injury >40%,PAT (pDAS1942) corn; [5],1
same,individuals with % Injury <20%,PAT (pDAS1942) corn; 4480 g ai/ha glufosinate postemergence,0
same,bacterial growth on minimal media,[3]; 250 μg/ml BASTA,+++
same,bacterial growth on minimal media,[3]; 500 μg/ml BASTA,+++
same,bacterial growth on minimal media,[3]; 1000 μg/ml BASTA,+++
same,bacterial growth on minimal media,[3]; 2000 μg/ml BASTA,+++
same,bacterial growth on minimal media,[3]; 4000 μg/ml BASTA,+++
same,concentration in minimal media at which expression of DSM-2 complemented resistance,[3]; minimal media,400 µg/mL
